# Source: US20240279215A1 (Cytokinetics, Incorporated, priority 2022, published 2024)
# Target: human NAMPT (Homo sapiens (Human), UniProt P43490)
# Experiment: NMN fluorescence biochemical assay (human recombinant NAMPT enzyme assay)
# Experimental: Compounds described herein were assayed for their ability to stimulate the synthesis of nicotinamide mononucleotide (NMN) by the enzyme NAMPT. The human recombinant enzyme assay measures the activation of the enzyme activity by compounds using recombinant enzyme and substrates in a buffered cell-free system. The assay conditions closely mimic cellular environments. Dose responses were measured using an assay to detect the formation of nicotinamide mono-nucleotide. All experiments were performed in the 384-well format. Generally, 0.5 μL of DMSO containing varying concentrations of the test compound was mixed with 10 μL of the enzyme reagent solution. Enzyme reactions were initiated with the addition of […] containing the substrates. The final assay conditions were as follows: 6 nM human NAMPT, 2.5 mM ATP, 20 μM PRPP and 150 μM nicotinamide in 50 mM HEPES, pH 7.2, 1 mM DTT, 1 mM CHAPS 50 mM NaCl, 100 mM MgCl2. Following an incubation of 60 min at ambient temperature, 10 μL of 20% acetophenone in DMSO was added, followed by 10 μL of 2 M KOH and 40 μL of formic acid. The plates were read for fluorescence (Excitation/Emission=355 nm/460 nm) using an EnVision plate reader after 40 mins of incubation at ambient temperature.
# Chain of human NAMPT (P43490 whole entry): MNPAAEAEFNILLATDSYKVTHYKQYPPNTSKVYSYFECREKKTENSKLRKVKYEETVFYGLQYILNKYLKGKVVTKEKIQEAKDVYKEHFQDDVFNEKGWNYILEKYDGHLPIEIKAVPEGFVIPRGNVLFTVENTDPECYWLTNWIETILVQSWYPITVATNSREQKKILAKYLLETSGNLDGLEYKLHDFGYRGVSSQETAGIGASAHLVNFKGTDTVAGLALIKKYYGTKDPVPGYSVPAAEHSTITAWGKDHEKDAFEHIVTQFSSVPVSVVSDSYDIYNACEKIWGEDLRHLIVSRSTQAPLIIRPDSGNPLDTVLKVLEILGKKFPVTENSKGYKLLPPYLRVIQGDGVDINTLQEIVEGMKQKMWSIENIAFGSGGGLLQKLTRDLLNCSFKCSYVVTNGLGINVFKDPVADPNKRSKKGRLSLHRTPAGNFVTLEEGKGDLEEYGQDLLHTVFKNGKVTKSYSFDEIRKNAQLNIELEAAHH
AC1.4 Human,EC50,SMILES
0.75 µM,3.47 µM,C[C@H](NC(=O)N1CCC1)c1ccc(NC(=O)OCc2ccc(Cl)cc2)cc1 [Compound 96]
2.58 µM,20.3 µM,"COC(=O)N1CCC[C@@H](c2ccc(NC(=O)OCc3cnco3)cc2)C1 [Compound 383, methyl (S)-3-(4-(((oxazol-5-ylmethoxy)carbonyl)amino)phenyl)piperidine-1-carboxylate]"
0.65 µM,7.44 µM,"O=C(Nc1ccc(CNC(=O)c2ccncc2F)cc1)OCc1ccc(Cl)cc1 [Compound 78, (4-chlorophenyl)methyl N-(4-{[(3-fluoropyridin-4-yl)formamido]methyl}phenyl)carbamate]"
8.66 µM,46.3 µM,"O=C(Cc1cnoc1)NCc1ccc(NC(=O)OCc2ccc(Cl)cc2)cc1 [Compound 330, (4-chlorophenyl)methyl N-(4-{[2-(1,2-oxazol-4-yl)acetamido]methyl}phenyl)carbamate]"
0.13 µM,5.8 µM,"CS(=O)(=O)N1CCC2(CC(Cc3ccc(NC(=O)OCc4cnco4)cc3F)C2)C1 (centres unmarked) [Compound 370, oxazol-5-ylmethyl (3-fluoro-4-((6-(methylsulfonyl)-6-azaspiro[3.4]octan-2-yl)methyl)phenyl)carbamate]"
1.41 µM,6.11 µM,"O=C(Nc1ccc(Cc2ccncc2)cc1)OCc1ccncc1 [Compound 169, pyridin-4-ylmethyl (4-(pyridin-4-ylmethyl)phenyl)carbamate]"
0.66 µM,3.9 µM,"CCc1ccc(C(=O)NCc2ccc(NC(=O)OCc3ccc(Cl)cc3)cc2)cn1 [Compound 82, (4-chlorophenyl)methyl N-(4-{[(6-ethylpyridin-3-yl)formamido]methyl}phenyl)carbamate]"
1.31 µM,9.45 µM,"COC(=O)N1CCN(C(=O)Cc2ccc(NC(=O)OCc3ccc(Cl)cc3)cc2)CC1 [Compound 156, methyl 4-(2-(4-((((4-chlorobenzyl)oxy)carbonyl)amino)phenyl)acetyl)piperazine-1-carboxylate]"
1.05 µM,2.55 µM,"CC(C)n1nccc1C(=O)N(C)Cc1ccc(NC(=O)OCc2ccc(Cl)cc2)cc1 [Compound 131, (4-chlorophenyl)methyl N-(4-{[1-(2-isopropylpyrazol-3-yl)-N-methylformamido]methyl}phenyl)carbamate]"
0.82 µM,1.89 µM,"O=C(Nc1ccc(CC2CCN(C(=O)C3CCC3)CC2)cc1)OCc1ccc(Cl)cc1 [Compound 102, 4-chlorobenzyl (4-((1-(cyclobutanecarbonyl)piperidin-4-yl)methyl)phenyl)carbamate]"
0.104 µM,3.5 µM,"CS(=O)(=O)N1CCC2(CC(c3ccc(NC(=O)OCc4cnco4)cc3F)C2)C1 (single isomer, unassigned) [Compound 359]"
1.27 µM,10.6 µM,"Cc1ncoc1C(=O)N[C@@H](C)c1ccc(NC(=O)OCc2ccc(Cl)cc2)cc1 [Compound 152, (4-chlorophenyl)methyl N-{4-[(1S)-1-[(4-methyl-1,3-oxazol-5-yl)formamido]ethyl]phenyl}carbamate]"
2.13 µM,15.3 µM,"C[C@H](NC(=O)[C@H]1C[C@@H]2[C@H](C1)C2(F)F)c1ccc(NC(=O)OCc2cnco2)cc1 [Compound 230, 1,3-oxazol-5-ylmethyl N-{4-[(1S)-1-{[(1R,3r,5S)-6,6-difluorobicyclo[3.1.0]hexan-3-yl]formamido}ethyl]phenyl}carbamate]"
2.59 µM,11 µM,"Cc1nocc1C(=O)NCc1ccc(NC(=O)OCc2ccc(Cl)cc2)cc1 [Compound 251, (4-chlorophenyl)methyl N-(4-{[(3-methyl-1,2-oxazol-4-yl)formamido]methyl}phenyl)carbamate]"
2.03 µM,32.5 µM,"O=C(Nc1ccc(CC(=O)N2CCOCC2)cc1)OCc1ccc(Cl)cc1 [Compound 220, (4-chlorophenyl)methyl N-{4-[2-(morpholin-4-yl)-2-oxoethyl]phenyl}carbamate]"
0.57 µM,1.91 µM,"Cc1ccc(C(=O)N[C@@H](C)c2ccc(NC(=O)OCc3ccc(Cl)cc3)cc2)cn1 [Compound 60, 4-chlorobenzyl (S)-(4-(1-(6-methylnicotinamido)ethyl)phenyl)carbamate]"

AC1.4 Human,EC50,SMILES
7.47 µM,50.9 µM,"COc1ccc(COC(=O)Nc2ccc(CN3CC(S(C)(=O)=O)C3)cc2)cc1 [Compound 324, (4-methoxyphenyl)methyl N-{4-[(3-methanesulfonylazetidin-1-yl)methyl]phenyl}carbamate]"
1.39 µM,4.54 µM,"CCn1nccc1C(=O)NCc1ccc(NC(=O)OCc2ccc(Cl)cc2)cc1 [Compound 167, (4-chlorophenyl)methyl N-(4-{[(2-ethylpyrazol-3-yl)formamido]methyl}phenyl)carbamate]"
0.68 µM,1.75 µM,"CC(C)C(=O)N1CCC(Cc2ccc(NC(=O)OCc3ccc(Cl)cc3)cc2)CC1 [Compound 87, 4-chlorobenzyl (4-((1-isobutyrylpiperidin-4-yl)methyl)phenyl)carbamate]"
6.50 µM,40.8 µM,"O=C(Nc1ccc(CC(=O)N2CC[C@H](O)C2)cc1)OCc1ccc(Cl)cc1 [Compound 319, (4-chlorophenyl)methyl N-(4-{2-[(3S)-3-hydroxypyrrolidin-1-yl]-2-oxoethyl}phenyl)carbamate]"
0.07 µM,11.5 µM,"CN(C)C(=O)N1CC2CCC(C1)C2Cc1ccc(NC(=O)OCc2cnco2)cc1 (centres unmarked) [Compound 422, oxazol-5-ylmethyl (4-((3-(dimethylcarbamoyl)-3-azabicyclo[3.2.1]octan-8-yl)methyl)phenyl)carbamate]"
2.08 µM,9.1 µM,"Cc1cc(C(=O)NCc2ccc(NC(=O)OCc3ccc(Cl)cc3)cc2)n(C)n1 [Compound 225, (4-chlorophenyl)methyl N-(4-{[(2,5-dimethylpyrazol-3-yl)formamido]methyl}phenyl)carbamate]"
0.61 µM,2.51 µM,"CN(Cc1ccc(NC(=O)OCc2ccc(Cl)cc2)cc1)C(=O)c1n[nH]cc1F [Compound 71, (4-chlorophenyl)methyl N-(4-{[1-(4-fluoro-1H-pyrazol-3-yl)-N-methylformamido]methyl}phenyl)carbamate]"
1.84 µM,10.1 µM,"Cn1nccc1C(=O)NCc1ccc(NC(=O)OCc2ccc(Cl)cc2)cc1 [Compound 205, (4-chlorophenyl)methyl N-(4-{[(2-methylpyrazol-3-yl)formamido]methyl}phenyl)carbamate]"
1.38 µM,1.6 µM,"C[C@H](NC(=O)c1ccc(C(F)F)nc1)c1ccc(NC(=O)OCc2ccc(Cl)cc2)cc1 [Compound 164, (4-chlorophenyl)methyl N-{4-[(1S)-1-{[6-(difluoromethyl)pyridin-3-yl]formamido}ethyl]phenyl}carbamate]"
0.17 µM,27.5 µM,"O=C(Nc1ccc(C2CCN(C(=O)C3CC3)CC2)cc1)OCc1cnco1 [Compound 431, oxazol-5-ylmethyl (4-(1-(cyclopropanecarbonyl)piperidin-4-yl)phenyl)carbamate]"
1.96 µM,8.35 µM,"CC1CCCN1C(=O)Cc1ccc(NC(=O)OCc2ccc(Cl)cc2)cc1 (centres unmarked) [Compound 215, (4-chlorophenyl)methyl N-{4-[2-(2-methylpyrrolidin-1-yl)-2-oxoethyl]phenyl}carbamate]"
2.75 µM,13.9 µM,C[C@H](NC(=O)c1cc(C(F)F)nn1C)c1ccc(NC(=O)OCc2ccc(Cl)cc2)cc1 [Compound 259]
8.05 µM,31.9 µM,"O=C(Nc1ccc(Cc2ccncc2)cc1)OCc1ccnnc1 [Compound 326, pyridazin-4-ylmethyl (4-(pyridin-4-ylmethyl)phenyl)carbamate]"
0.17 µM,10.7 µM,"O=C(Nc1ccc(CC2CCN(C3COC3)C3(CC3)C2)cc1)OCc1cnco1 (centres unmarked) [Compound 441, oxazol-5-ylmethyl (4-((4-(oxetan-3-yl)-4-azaspiro[2.5]octan-7-yl)methyl)phenyl)carbamate]"
0.13 µM,9.34 µM,"O=C(Nc1ccc(CC2CCN(C(=O)N3CCCCC3)CC2)cc1)OCc1cnco1 [Compound 461, oxazol-5-ylmethyl (4-((1-(piperidine-1-carbonyl)piperidin-4-yl)methyl)phenyl)carbamate]"

SMILES,AC1.4 Human,EC50
"O=C(Nc1ccc(CC2CC3CCC(C2)N3C(=O)N2CCCC2)cc1)OCc1cnco1 (centres unmarked) [Compound 391, oxazol-5-ylmethyl (4-((8-(pyrrolidine-1-carbonyl)-8-azabicyclo[3.2.1]octan-3-yl)methyl)phenyl)carbamate]",0.05 µM,5.5 µM
"CC(=O)N1C2CCC1CC(Cc1ccc(NC(=O)OCc3cnco3)cc1)C2 (centres unmarked) [Compound 410, oxazol-5-ylmethyl (4-((8-acetyl-8-azabicyclo[3.2.1]octan-3-yl)methyl)phenyl)carbamate]",0.13 µM,4.19 µM
"O=C(Nc1ccc(CC2CC3CCC(C2)N3C(=O)N2CCCCC2)cc1)OCc1cnco1 (centres unmarked) [Compound 390, oxazol-5-ylmethyl (4-((8-(piperidine-1-carbonyl)-8-azabicyclo[3.2.1]octan-3-yl)methyl)phenyl)carbamate]",0.13 µM,1.8 µM
